Results: patent publication US20130034497A1, “IODINE-LABELED HOMOGLUTAMIC ACID AND GLUTAMIC ACID DERIVATIVES” (PIRAMAL IMAGING SA, priority 2009, published 2013)
Blank lines part the entries; values can stand above or below the molecule they belong to.

Experiments:
[1] = tested on: NCl-H460 cells; experiment: tumor cell uptake/binding experiment with I125-labeled derivative; format: cell-based, human
Experimental: FIG. 6 The time dependence of uptake of (2S,4S)-2-Amino-4-(4-[I-125]-iodo-benzyl)-pentanedioic acid was determined. H460 cells were incubated with 0.25 MBq (2S,4S)-2-Amino-4-(4-[I-125]-iodo-benzyl)-pentanedioic acid for up to 60 min and the cell-bound fraction was determined after 10, 20, 30 and 60 min).
In a next experiment, NCl-H460 cells were incubated with [I125]-labeled (2S,4S)-2-Amino-4-(3-[4-[I-125]-iodophenoxy]propylypentanedioic acid for up to 30 min and the cell-bound fraction was determined. Approximately 12% of applied activity was bound to the cells after 30 min incubation (FIG. 2).
FIG. 2: E xamination of biological activity of (2S,4S)-2-Amino-4-(3-[4-[I-125]-iodophenoxy]propylypentanedioic acid in a tumor cell uptake/binding experiment. (NCl-H460 cells, up to 30 min incubation with I125-labeled derivative).
Cell uptake & Retention of (2S,4S)-2-Amino-4-(4-[1-125]-iodo-benzyl)-pentanedioic acid—For determination of the biological activity of (2S,4S)-2-Amino-4-(4-[I-125]-iodo-benzyl)-pentanedioic acid, the I-125 labeled compound was used as tracer in a cell uptake experiment using H460 (human NSCLC) cells. Approximately 100.000 cells were incubated with 0.25 MBq (2S,4S)-2-Amino-4-(4-[I-125]-iodo-benzyl)-pentanedioic acid for up to 60 minutes in PBS-buffer containing 0.1% BSA and the cell-bound fraction was determined. […] Approximately 22,3% of applied dose was taken up by the cells during the 60 min incubation period (see FIG. 6).

[2] = tested on: NCl-H460 cells; experiment: cell competition experiment with I125-labeled derivative as tracer; format: cell-based, human
Experimental: To determine the specificity of (2S,4S)-2-Amino-4-(4-hydroxy-3-[1-125]-iodobenzyl)-pentanedioic acid, the compound was used as tracer in a cell competition experiment in H460 tumor cells against an excess of L-Glutamic acid (1 mM).
FIG. 3: Examination of biological activity of (2S,4S)-2-Amino-4-(3-[4-[I-125]-iodophenoxy]propylypentanedioic acid in a cell competition experiment. (NCl-H460 cells, 30 min incubation with I125-labeled derivative in PBS-buffer, concentration of “cold” derivative 1 mM).
FIG. 5: Determination of biological activity of (2S,4S)-2-Amino-4-(4-hydroxy-3-[I-125]-iodobenzyl)-pentanedioic acid in a cell competition experiment. (NCl-H460 cells, 10 min incubation with [I125]-labeled derivative in PBS-buffer, concentration of L-Glutamate 1 mM).

[3] = tested on: NCl-H460 (human NSCLC) tumor cells; experiment: cell competition experiment with 3H-glutamic acid as tracer, NCl-H460 cells; format: cell-based
Experimental: FIG. 9 Examination of biological activity of (S)-2-Amino-5-(4-iodobenzyl)-hexanedioic acid in a cell-competition-experiment (H460 cells, 30 min incubation with 3H-glutamic acid in PBS-Puffer, concentration of competitor 1 mM and 0.1 mM).
The specificity of binding to NCl-H460 (human NSCLC) tumor cells was examined using 3H-Glutamic acid as tracer and (2S,4S)-2-Amino-4-(3-[4-iodophenoxy]propyl)-pentanedioic acid in concentrations ranging from 4 μM to 1 mM.
(§1) The specificity of binding was examined in a cell competition experiment using 3H-glutamic acid as tracer and (2S,4S)-2-Amino-4-(4-iodo-benzyl)-pentanedioic acid in excess (1 mM) to compete for transporter.
FIG. 1: Concentration dependent blocking of 3H-Glutamic acid uptake in H460 cells using different concentrations of (2S,4S)-2-Amino-4-(3-[4-iodophenoxy]propyl)-pentanedioic acid.
(§2) FIG. 4: Examination of biological activity of (2S,4S)-2-Amino-4-(4-iodo-benzyl)-pentanedioic acid in a cell competition experiment. (NCl-H460 cells, A549 cells, 10 min incubation with 1 μCi 3H-Glutamic acid in PBS-buffer, concentration of test compound 1 mM).
The ability of (S)-2-Amino-5-(4-iodobenzyl)-hexanedioic acid to compete with uptake of glutamic acid into tumor cells was examined. Therefore, tumor cells were co-incubated with 3H-labeled glutamic acid and (S)-2-Amino-5-(4-iodobenzyl)-hexanedioic acid. This compounds was used in large excess to the tracer 3H-glutamic acid. Two concentrations were examined (1mM an 0.1 mM).

[4] = tested on: H460 tumor cells; experiment: retention of activity in tumor cells (efflux); format: cell-based, human; conditions: H460 cells loaded 30 min; after 30 min in new PBS-buffer (efflux conditions)
Experimental: FIG. 7 Examination of retention of (2S,4S)-2-Amino-4-(4-[I-125]odo-benzyl)-pentanedioic acid in H460 tumor cells. H460 cells were loaded with 0.25 MBq (2S,4S)-2-Amino-4-(4-[I-125]-iodo-benzyl)-pentanedioic acid for 30 min in PBS/BSA. After washing, the cells were incubated with new buffer (without radioactivity) for additional 10, 20, 30 min. The release of radioactivity into the supernatant as well as the retention inside the cells was determined.
In a second experiment, the retention of activity in tumor cells was examined. H460 cells were loaded with 0.25 MBq (2S,4S)-2-Amino-4-(4-[I-125]-iodo-benzyl)-pentanedioic acid for 30 minutes in PBS/BSA-buffer. After this uptake, the buffer was removed and the cells were washed with PBS. The cells were then incubated with new PBS-buffer (without activity) for up to 30 min. The release of activity into the supernatant as well as the retention of activity inside the cells was examined. It was discovered, that more than 75% of activity were retained in the tumor cells after 30 min under these efflux conditions (see FIG. 7).

[5] = tested on: NCl-H460 (human NSCLC) tumor bearing nude-mice; experiment: SPECT imaging in tumor bearing nude-mice; format: in vivo, nude-mice (NMRI nu/nu); conditions: approx. 10 MBq; images acquired at 60 min p.i. for 35 min
Experimental: FIG. 8 SPECT imaging with (2S,4S)-2-Amino-4-(4-[I-125]odo-benzyl)-pentanedioic acid after injection into H460 tumor bearing mouse.
SPECT imaging. (2S,4S)-2-Amino-4-(4-[I-125]-iodo-benzyl)-pentanedioic acid was examined in NCl-H460 (human NSCLC) tumor bearing nude-mice (NMRI nu/nu). Approx. 10 MBq of (2S,4S)-2-Amino-4-(4-[I-125]-iodo-benzyl)pentanedioic acid was injected into the mouse. SPECT imaging was performed using a γ-camera (Nucline SPIRIT DH-V). Images were aquired at 60 min p.i. for 35 min with 60 sec/frame.

[6] = tested on: H460 tumor bearing mice; experiment: Biodistribution in H460 tumor bearing mice; format: in vivo, NMRI (nu/nu) mice; conditions: for Bilanz/summary Recovery / Bilanz/summary urine: in % (unit assumed)
Experimental: Biodistribution in H460 tumor bearing mice. To test the pharmacokinetic properties of (2S,4S)-2-Amino-4-(4-[I-125]-iodo-benzyl)-pentanedioic acid, the iodinated compound was examined in H460 tumor bearing mice. NMRI (nu/nu) mice were inoculated with H460 tumor cells 8 to 10 days before the biodistribution studies. 185 kBq of activity of the tracer was injected into each mouse. n=3 mice were used at every time point. After injection of the I125-labeled compound, mice were sacrificed at the time points indicated. All organs were removed and radioactivity was determined using a γ-counter. […] Very rapid clearance of radioactivity takes place via the kidneys, with more than 90% of activity being excreted after 30 min p.i.

[7] = tested on: A549 (human NSCLC cell line); experiment: cell competition experiment with 3H-glutamic acid as tracer, A549 cells; format: cell-based; conditions: test compound 1 mM, 10 min incubation with 1 μCi 3H-Glutamic acid in PBS-buffer
Experimental: as §1, §2

Structure (SMILES): N[C@@H](C[C@H](CCCOc1ccc([125I])cc1)C(=O)O)C(=O)O [(2S,4S)-2-Amino-4-(3-[4-[I-125]-iodophenoxy]propyl)-pentanedioic acid]
cell-bound fraction ([1]; NCl-H460 cells, after 30 min incubation): Approximately 12 % of applied activity
binding of I125 tracer with cold derivative in excess ([2]; NCl-H460 cells, 30 min incubation in PBS-buffer, cold derivative 1 mM): a large decrease in binding was observed

Structure (SMILES): N[C@@H](C[C@H](CCCOc1ccc(I)cc1)C(=O)O)C(=O)O [(2S,4S)-2-Amino-4-(3-[4-iodophenoxy]propyl)-pentanedioic acid]
uptake of 3H-glutamic acid (blocking) ([3]; NCl-H460 cells, test compound 4 μM to 1 mM): able to reduce the uptake of glutamic acid in NCl-H460 cells in a concentration dependent manner

Bilanz/summary carcass ([6]; 0.5 h): 3.4%
Bilanz/summary organs ([6]; 0.5 h): 10.2%
blood ([6]; 0.5 h): 0.28 % Dosis/g
gallbladder ([6]; 0.5 h): 8.09 % Dosis/g
intestine ([6]; 0.5 h): 1.26 % Dosis/g
kidney ([6]; 0.5 h): 2.14 % Dosis/g
liver ([6]; 0.5 h): 0.25 % Dosis/g
pancreas ([6]; 0.5 h): 0.62 % Dosis/g
thyroid ([6]; 0.5 h): 0.43 % Dosis/g
tumor ([6]; 0.5 h): 4.12 % Dosis/g
Bilanz/summary Recovery ([6]; 0.5 h): 112.7
Bilanz/summary urine ([6]; 0.5 h): 99.1
uptake in the tumor ([6]; 30 min p.i., 185 kBq): 4.12 % injected dose per gram of tumor
Bilanz/summary carcass ([6]; 1 h): 2.2%
Bilanz/summary faeces ([6]; 1 h): 0.7%
Bilanz/summary organs ([6]; 1 h): 6.8%
blood ([6]; 1 h): 0.13 % Dosis/g
gallbladder ([6]; 1 h): 5.00 % Dosis/g
intestine ([6]; 1 h): 0.85 % Dosis/g
kidney ([6]; 1 h): 0.83 % Dosis/g
liver ([6]; 1 h): 0.07 % Dosis/g
pancreas ([6]; 1 h): 0.12 % Dosis/g
thyroid ([6]; 1 h): 0.72 % Dosis/g
tumor ([6]; 1 h): 3.68 % Dosis/g
Bilanz/summary Recovery ([6]; 1 h): 109.3
Bilanz/summary urine ([6]; 1 h): 99.6
Bilanz/summary carcass ([6]; 2 h): 1.1%
Bilanz/summary faeces ([6]; 2 h): 2%
Bilanz/summary organs ([6]; 2 h): 3.8%
blood ([6]; 2 h): 0.08 % Dosis/g
gallbladder ([6]; 2 h): 4.73 % Dosis/g
intestine ([6]; 2 h): 0.78 % Dosis/g
kidney ([6]; 2 h): 0.24 % Dosis/g
liver ([6]; 2 h): 0.03 % Dosis/g
pancreas ([6]; 2 h): 0.06 % Dosis/g
thyroid ([6]; 2 h): 0.42 % Dosis/g
tumor ([6]; 2 h): 1.90 % Dosis/g
Bilanz/summary Recovery ([6]; 2 h): 109.7
Bilanz/summary urine ([6]; 2 h): 102.8
Bilanz/summary carcass ([6]; 4 h): 0.5%
Bilanz/summary faeces ([6]; 4 h): 0.1%
Bilanz/summary organs ([6]; 4 h): 2.8%
blood ([6]; 4 h): 0.06 % Dosis/g
gallbladder ([6]; 4 h): 6.63 % Dosis/g
intestine ([6]; 4 h): 1.32 % Dosis/g
kidney ([6]; 4 h): 0.10 % Dosis/g
liver ([6]; 4 h): 0.03 % Dosis/g
pancreas ([6]; 4 h): 0.03 % Dosis/g
thyroid ([6]; 4 h): 1.05 % Dosis/g
tumor ([6]; 4 h): 1.55 % Dosis/g
Bilanz/summary Recovery ([6]; 4 h): 115.3
Bilanz/summary urine ([6]; 4 h): 111.9
activity excreted via the kidneys ([6]; after 30 min p.i.): more than 90 % of activity
Structure (SMILES): N[C@@H](C[C@H](Cc1ccc([125I])cc1)C(=O)O)C(=O)O [(2S,4S)-2-Amino-4-(4-[I-125]-iodo-benzyl)-pentanedioic acid]
activity retained in the tumor cells [4]: more than 75 % of activity
tumor visibility in SPECT-images [5]: The tumor was very well visible
uptake by the cells ([1]; H460 cells, 0.25 MBq, 60 min incubation, PBS-buffer containing 0.1% BSA): Approximately 22,3 % of applied dose
time dependence of uptake ([1]; H460 cells, 0.25 MBq, up to 60 min, PBS-buffer containing 0.1% BSA): A time-dependent uptake was observed

Structure (SMILES): N[C@@H](C[C@H](Cc1ccc(O)c([125I])c1)C(=O)O)C(=O)O [(2S,4S)-2-Amino-4-(4-hydroxy-3-[I-125]-iodobenzyl)-pentanedioic acid]
uptake of I125 tracer against excess of L-Glutamic acid ([2]; H460 cells, 10 min incubation in PBS-buffer, L-Glutamate 1 mM): the uptake was blockable by excess of glutamic acid

Structure (SMILES): N[C@@H](C[C@H](Cc1ccc(I)cc1)C(=O)O)C(=O)O [(2S,4S)-2-Amino-4-(4-iodo-benzyl)-pentanedioic acid]
uptake of 3H-glutamic acid [7]: able to reduce the uptake of glutamic acid
uptake of 3H-glutamic acid ([3]; NCl-H460 cells, test compound 1 mM, 10 min incubation with 1 μCi 3H-Glutamic acid in PBS-buffer): able to reduce the uptake of glutamic acid

Structure (SMILES): N[C@@H](CCC(Cc1ccc(I)cc1)C(=O)O)C(=O)O (stereo partly drawn) [(S)-2-Amino-5-(4-iodobenzyl)-hexanedioic acid]
uptake of 3H-glutamic acid ([3]; H460 cells, 30 min incubation, competitor 1 mM and 0.1 mM): strongly reduces the uptake of glutamic acid
